In ChEMBL document CHEMBL4507259 (2021):

Key:
[1] = target: 5-hydroxytryptamine receptor 6 (Homo sapiens) (UniProt P50406); details: Compound concentration 10.0 uM
[2] = target: Epidermal growth factor receptor (Homo sapiens) (UniProt P00533); details: Compound concentration 1000.0 nM
[3] = target: Serine/threonine-protein kinase TAO1 (Homo sapiens) (UniProt Q7L7X3); details: Compound concentration 1000.0 nM
[4] = target: Tyrosine-protein kinase Fyn (Homo sapiens) (UniProt P06241); details: Compound concentration 1000.0 nM
[5] = target: T1, Alpha-2A adrenergic receptor (Homo sapiens) (UniProt P08913); details: Compound concentration 10.0 uM
T1 sequence (whole entry): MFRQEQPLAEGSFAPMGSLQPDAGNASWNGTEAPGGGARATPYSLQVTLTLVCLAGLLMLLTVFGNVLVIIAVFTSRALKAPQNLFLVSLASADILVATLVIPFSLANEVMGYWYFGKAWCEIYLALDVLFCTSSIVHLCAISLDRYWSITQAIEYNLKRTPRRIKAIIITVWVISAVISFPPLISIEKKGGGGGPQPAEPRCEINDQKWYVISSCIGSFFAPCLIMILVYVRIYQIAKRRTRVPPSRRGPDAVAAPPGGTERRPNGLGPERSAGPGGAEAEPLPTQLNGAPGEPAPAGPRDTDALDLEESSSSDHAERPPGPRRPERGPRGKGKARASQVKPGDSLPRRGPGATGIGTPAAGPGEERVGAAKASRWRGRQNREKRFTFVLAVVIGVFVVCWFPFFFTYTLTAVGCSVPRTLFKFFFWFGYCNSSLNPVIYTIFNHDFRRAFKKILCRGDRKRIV

[6] = target: Tyrosine-protein kinase CSK (Homo sapiens) (UniProt P41240); details: Compound concentration 1000.0 nM
[7] = target: Phosphatidylinositol 4,5-bisphosphate 3-kinase catalytic subunit gamma isoform (Homo sapiens) (UniProt P48736); details: Compound concentration 1000.0 nM
[8] = target: T2, Muscarinic acetylcholine receptor M4 (Homo sapiens) (UniProt P08173); details: Compound concentration 10.0 uM
T2 sequence (whole entry): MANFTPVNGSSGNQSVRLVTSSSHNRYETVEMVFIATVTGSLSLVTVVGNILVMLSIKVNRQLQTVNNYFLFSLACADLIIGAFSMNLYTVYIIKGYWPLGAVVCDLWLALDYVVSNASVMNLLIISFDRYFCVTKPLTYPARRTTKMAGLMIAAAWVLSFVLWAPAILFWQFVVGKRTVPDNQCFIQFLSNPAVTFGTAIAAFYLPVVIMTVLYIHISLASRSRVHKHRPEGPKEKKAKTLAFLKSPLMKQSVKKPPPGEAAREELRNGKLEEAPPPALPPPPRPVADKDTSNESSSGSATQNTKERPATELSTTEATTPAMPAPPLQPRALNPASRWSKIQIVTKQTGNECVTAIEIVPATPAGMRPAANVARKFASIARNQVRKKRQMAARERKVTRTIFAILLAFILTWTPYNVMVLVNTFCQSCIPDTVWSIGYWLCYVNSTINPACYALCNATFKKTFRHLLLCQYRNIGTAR

[9] = target: Macrophage-stimulating protein receptor (Homo sapiens) (UniProt Q04912); details: Compound concentration 1000.0 nM
[10] = target: Dual specificity mitogen-activated protein kinase kinase 3 (Homo sapiens) (UniProt P46734); details: Compound concentration 1000.0 nM
[11] = target: Peripheral plasma membrane protein CASK (Homo sapiens) (UniProt O14936); details: Compound concentration 1000.0 nM
[12] = target: Interferon-induced, double-stranded RNA-activated protein kinase (Homo sapiens) (UniProt P19525); details: Compound concentration 1000.0 nM
[13] = target: BDNF/NT-3 growth factors receptor (Homo sapiens) (UniProt Q16620); details: Compound concentration 1000.0 nM
[14] = target: Serine/threonine-protein kinase MARK2 (Homo sapiens) (UniProt Q7KZI7); details: Compound concentration 1000.0 nM
[15] = target: Phosphorylase b kinase regulatory subunit alpha, liver isoform (Homo sapiens) (UniProt P46019); details: Compound concentration 1000.0 nM
[16] = target: NT-3 growth factor receptor (Homo sapiens) (UniProt Q16288); details: Compound concentration 1000.0 nM
[17] = tested on: Epidermal growth factor receptor (Homo sapiens), P00533 [UNDEFINED MUTATION]; details: Compound concentration 1000.0 nM
[18] = target: Homeodomain-interacting protein kinase 2 (Homo sapiens) (UniProt Q9H2X6); details: Compound concentration 1000.0 nM
[19] = target: Acetylcholinesterase (Homo sapiens) (UniProt P22303); test: acetylcholinesterase (h) CEREP ligand profiling; details: Compound concentration 10.0 uM
[20] = organism: Rattus norvegicus; details: Compound concentration 10.0 uM
[21] = target: Serine/threonine-protein kinase 16 (Homo sapiens) (UniProt O75716); details: Compound concentration 1000.0 nM
[22] = target: Serine/threonine-protein kinase 3 (Homo sapiens) (UniProt Q13188); details: Compound concentration 1000.0 nM
[23] = target: Glycogen synthase kinase-3 alpha (Homo sapiens) (UniProt P49840); details: Compound concentration 1000.0 nM
[24] = target: Serine/threonine-protein kinase NIM1 (Homo sapiens) (UniProt Q8IY84); details: Compound concentration 1000.0 nM
[25] = target: Melatonin receptor type 1B (Homo sapiens) (UniProt P49286); test: MT2 (ML1B) (h) CEREP ligand profiling; details: filed as agonist, Compound concentration 10.0 uM
[26] = target: Muscarinic acetylcholine receptor M3 (Homo sapiens) (UniProt P20309); test: M3 (h) CEREP ligand profiling; details: filed as antagonist, Compound concentration 10.0 uM
[27] = target: Serine/threonine-protein kinase ULK3 (Homo sapiens) (UniProt Q6PHR2); details: Compound concentration 1000.0 nM
[28] = target: Myosin-IIIb (Homo sapiens) (UniProt Q8WXR4); details: Compound concentration 1000.0 nM
[29] = target: Mitogen-activated protein kinase 8 (Homo sapiens) (UniProt P45983); details: Compound concentration 1000.0 nM
[30] = target: Serine/threonine-protein kinase PLK1 (Homo sapiens) (UniProt P53350); details: Compound concentration 1000.0 nM
[31] = target: Receptor-interacting serine/threonine-protein kinase 2 (Homo sapiens) (UniProt O43353); details: Compound concentration 1000.0 nM
[32] = target: Tyrosine-protein kinase Tec (Homo sapiens) (UniProt P42680); details: Compound concentration 1000.0 nM

Sequence of Serine/threonine-protein kinase TAO1 (Homo sapiens) (Q7L7X3 whole entry): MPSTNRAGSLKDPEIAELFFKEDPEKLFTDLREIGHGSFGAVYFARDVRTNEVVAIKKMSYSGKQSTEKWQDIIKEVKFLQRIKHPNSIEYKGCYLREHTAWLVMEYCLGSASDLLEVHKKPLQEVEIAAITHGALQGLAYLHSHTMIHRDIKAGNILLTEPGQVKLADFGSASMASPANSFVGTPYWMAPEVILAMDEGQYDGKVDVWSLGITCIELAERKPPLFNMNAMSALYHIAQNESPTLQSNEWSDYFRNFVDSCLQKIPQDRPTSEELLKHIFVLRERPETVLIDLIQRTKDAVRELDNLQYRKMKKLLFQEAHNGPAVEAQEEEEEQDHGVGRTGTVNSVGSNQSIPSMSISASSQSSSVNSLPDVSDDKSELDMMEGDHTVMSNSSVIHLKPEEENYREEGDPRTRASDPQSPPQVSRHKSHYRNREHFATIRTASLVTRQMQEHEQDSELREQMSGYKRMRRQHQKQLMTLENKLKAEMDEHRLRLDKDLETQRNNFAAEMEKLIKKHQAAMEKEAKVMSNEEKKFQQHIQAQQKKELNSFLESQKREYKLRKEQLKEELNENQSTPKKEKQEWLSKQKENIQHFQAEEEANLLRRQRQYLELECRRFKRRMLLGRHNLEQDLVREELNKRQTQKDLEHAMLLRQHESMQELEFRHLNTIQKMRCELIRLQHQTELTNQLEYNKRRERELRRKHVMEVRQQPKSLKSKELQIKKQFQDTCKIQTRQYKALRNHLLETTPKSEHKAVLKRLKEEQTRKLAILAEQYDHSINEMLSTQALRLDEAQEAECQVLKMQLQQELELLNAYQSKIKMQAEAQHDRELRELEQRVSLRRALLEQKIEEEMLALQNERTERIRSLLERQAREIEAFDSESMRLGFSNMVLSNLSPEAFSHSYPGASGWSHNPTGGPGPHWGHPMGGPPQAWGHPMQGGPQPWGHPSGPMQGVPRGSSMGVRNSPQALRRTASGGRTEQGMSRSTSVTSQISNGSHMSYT
Sequence of Dual specificity mitogen-activated protein kinase kinase 3 (Homo sapiens) (P46734 whole entry): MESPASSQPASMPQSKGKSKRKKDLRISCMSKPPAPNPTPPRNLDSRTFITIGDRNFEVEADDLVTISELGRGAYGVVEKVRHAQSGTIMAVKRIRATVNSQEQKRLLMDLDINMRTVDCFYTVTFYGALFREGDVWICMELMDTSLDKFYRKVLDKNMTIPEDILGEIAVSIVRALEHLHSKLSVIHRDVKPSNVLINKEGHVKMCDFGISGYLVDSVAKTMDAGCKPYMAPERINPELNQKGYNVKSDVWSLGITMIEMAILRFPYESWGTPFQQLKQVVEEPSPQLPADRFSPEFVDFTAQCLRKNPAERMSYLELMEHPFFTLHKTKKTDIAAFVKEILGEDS
Sequence of Glycogen synthase kinase-3 alpha (Homo sapiens) (P49840 2-483 limits assumed): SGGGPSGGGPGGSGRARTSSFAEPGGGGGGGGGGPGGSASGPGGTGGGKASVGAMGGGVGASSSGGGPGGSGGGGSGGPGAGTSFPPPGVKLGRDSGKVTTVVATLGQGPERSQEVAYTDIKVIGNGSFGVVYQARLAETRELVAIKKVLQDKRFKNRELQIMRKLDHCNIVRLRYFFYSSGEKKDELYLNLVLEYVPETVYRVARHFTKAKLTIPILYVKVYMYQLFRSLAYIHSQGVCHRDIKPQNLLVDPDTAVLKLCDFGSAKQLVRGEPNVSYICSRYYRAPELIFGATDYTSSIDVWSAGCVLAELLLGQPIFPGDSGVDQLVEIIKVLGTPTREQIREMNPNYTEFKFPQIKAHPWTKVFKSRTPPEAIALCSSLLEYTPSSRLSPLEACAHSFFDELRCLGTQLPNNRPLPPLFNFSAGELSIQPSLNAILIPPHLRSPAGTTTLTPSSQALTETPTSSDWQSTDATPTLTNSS
Sequence of Homeodomain-interacting protein kinase 2 (Homo sapiens) (Q9H2X6 whole entry, looked up): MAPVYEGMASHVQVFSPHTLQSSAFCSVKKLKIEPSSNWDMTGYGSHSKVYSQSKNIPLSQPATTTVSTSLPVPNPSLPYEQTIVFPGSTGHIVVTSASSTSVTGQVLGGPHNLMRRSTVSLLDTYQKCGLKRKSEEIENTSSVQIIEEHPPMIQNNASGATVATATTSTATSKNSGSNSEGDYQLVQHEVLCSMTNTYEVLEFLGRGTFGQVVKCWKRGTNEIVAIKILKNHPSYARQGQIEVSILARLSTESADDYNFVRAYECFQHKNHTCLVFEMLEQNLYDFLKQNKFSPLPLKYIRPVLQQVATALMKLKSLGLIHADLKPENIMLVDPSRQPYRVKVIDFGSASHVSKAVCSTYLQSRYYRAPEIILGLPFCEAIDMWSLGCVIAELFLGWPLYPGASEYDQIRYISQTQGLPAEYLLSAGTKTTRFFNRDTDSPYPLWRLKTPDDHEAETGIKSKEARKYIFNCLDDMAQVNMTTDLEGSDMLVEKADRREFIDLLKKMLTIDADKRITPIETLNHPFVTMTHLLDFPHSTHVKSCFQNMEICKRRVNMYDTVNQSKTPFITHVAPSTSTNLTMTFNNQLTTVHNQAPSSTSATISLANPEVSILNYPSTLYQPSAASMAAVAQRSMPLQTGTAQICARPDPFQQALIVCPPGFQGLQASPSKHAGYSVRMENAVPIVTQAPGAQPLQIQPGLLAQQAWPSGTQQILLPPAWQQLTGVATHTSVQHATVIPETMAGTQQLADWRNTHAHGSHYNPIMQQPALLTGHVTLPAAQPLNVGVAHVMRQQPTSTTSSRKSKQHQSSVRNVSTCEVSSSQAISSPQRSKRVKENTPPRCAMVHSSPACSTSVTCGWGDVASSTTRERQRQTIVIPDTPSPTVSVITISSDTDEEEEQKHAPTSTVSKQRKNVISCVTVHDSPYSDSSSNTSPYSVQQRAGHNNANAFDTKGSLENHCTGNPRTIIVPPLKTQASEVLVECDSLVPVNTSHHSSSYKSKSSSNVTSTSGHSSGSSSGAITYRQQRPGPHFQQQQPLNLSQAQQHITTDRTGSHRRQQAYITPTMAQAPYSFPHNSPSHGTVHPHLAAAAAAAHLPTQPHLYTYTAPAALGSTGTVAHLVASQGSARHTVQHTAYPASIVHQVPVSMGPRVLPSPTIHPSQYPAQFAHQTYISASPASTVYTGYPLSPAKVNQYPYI
Sequence of Macrophage-stimulating protein receptor (Homo sapiens) (Q04912 25-304 limits assumed): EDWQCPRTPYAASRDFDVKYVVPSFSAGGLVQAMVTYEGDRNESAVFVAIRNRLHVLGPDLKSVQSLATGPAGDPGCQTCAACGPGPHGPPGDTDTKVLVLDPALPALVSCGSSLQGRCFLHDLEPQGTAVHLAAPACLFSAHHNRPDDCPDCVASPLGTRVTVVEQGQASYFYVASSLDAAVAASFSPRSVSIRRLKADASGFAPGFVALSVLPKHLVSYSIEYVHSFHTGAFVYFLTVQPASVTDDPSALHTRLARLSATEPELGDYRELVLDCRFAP
Sequence of Macrophage-stimulating protein receptor (Homo sapiens) (Q04912 310-1400 limits assumed): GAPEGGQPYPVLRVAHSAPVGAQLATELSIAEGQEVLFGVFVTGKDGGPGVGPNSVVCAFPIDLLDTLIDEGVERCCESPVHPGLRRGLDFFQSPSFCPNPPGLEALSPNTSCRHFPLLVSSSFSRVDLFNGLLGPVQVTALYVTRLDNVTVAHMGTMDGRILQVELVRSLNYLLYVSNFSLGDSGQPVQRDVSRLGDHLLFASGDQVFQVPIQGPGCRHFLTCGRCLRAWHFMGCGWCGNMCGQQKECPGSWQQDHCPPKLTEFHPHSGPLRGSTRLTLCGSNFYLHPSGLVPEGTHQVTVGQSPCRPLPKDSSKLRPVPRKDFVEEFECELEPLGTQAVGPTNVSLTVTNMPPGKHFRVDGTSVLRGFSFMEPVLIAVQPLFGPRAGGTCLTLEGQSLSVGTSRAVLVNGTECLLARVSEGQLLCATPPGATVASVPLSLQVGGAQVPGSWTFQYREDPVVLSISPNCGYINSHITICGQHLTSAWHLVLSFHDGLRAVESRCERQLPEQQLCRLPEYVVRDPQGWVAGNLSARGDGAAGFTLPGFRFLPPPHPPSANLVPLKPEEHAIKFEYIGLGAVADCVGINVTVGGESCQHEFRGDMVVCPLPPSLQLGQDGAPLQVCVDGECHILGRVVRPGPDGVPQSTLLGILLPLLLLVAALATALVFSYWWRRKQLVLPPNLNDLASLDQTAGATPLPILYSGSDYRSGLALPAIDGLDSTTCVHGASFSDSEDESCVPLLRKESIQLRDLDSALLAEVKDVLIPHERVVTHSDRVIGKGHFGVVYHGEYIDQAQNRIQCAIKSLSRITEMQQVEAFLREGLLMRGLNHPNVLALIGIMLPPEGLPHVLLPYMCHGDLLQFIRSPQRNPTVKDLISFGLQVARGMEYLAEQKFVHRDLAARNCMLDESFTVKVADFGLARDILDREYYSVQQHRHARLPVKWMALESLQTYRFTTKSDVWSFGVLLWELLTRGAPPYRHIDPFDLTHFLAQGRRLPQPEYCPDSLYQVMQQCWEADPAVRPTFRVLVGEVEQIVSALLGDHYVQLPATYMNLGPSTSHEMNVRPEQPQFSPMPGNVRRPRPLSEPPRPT
Sequence of Melatonin receptor type 1B (Homo sapiens) (P49286 whole entry): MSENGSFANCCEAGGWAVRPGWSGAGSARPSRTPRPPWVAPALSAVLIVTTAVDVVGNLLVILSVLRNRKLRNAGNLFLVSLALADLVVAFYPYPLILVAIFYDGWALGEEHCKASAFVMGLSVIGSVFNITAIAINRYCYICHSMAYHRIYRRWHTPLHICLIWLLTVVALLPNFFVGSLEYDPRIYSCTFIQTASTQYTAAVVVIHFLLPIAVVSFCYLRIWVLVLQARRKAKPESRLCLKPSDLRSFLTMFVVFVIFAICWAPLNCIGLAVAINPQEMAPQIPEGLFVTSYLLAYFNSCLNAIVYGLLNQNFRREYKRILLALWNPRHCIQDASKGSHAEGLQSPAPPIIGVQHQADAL

Compound	inhibition [1] [%]	residual activity [2] [%]	residual activity [3] [%]	residual activity [4] [%]	inhibition [5] [%]	residual activity [6] [%]	residual activity [7] [%]	inhibition [8] [%]	residual activity [9] [%]	residual activity [10] [%]	residual activity [11] [%]	residual activity [12] [%]	residual activity [13] [%]	residual activity [14] [%]	residual activity [15] [%]	residual activity [16] [%]	residual activity [17] [%]	residual activity [18] [%]	inhibition [19] [%]	inhibition [20] [%]	further results
CNC(=O)Nc1ccc2c(c1)CC[C@@]21OC(=O)N(CC(=O)N(Cc2ccc(F)cc2)[C@@H](C)C(F)(F)F)C1=O [A-485]	32.6	100	94	100	3.72	100	95	11.2	77	71	86	92	95	100	97	84	67	95	-1	60	residual activity [21]: 84%; residual activity [22]: 100%; residual activity [23]: 99%; residual activity [24]: 71%; inhibition [25]: 12%; inhibition [26]: -5%; residual activity [27]: 90%; residual activity [28]: 88%; residual activity [29]: 65%; residual activity [30]: 63%; residual activity [31]: 100%; residual activity [32]: 90%
CNC(=O)Nc1ccc2c(c1)[C@@]1(CC2)OC(=O)N(CC(=O)N(Cc2ccc(F)cc2)[C@@H](C)C(F)(F)F)C1=O [A-486]	24.1	100	97	79	-1.4	100	64	30.4	100	87	66	100	89	100	100	82	85	78	8	50.6	residual activity [21]: 99%; residual activity [22]: 97%; residual activity [23]: 92%; residual activity [24]: 76%; inhibition [25]: 8%; inhibition [26]: 0%; residual activity [27]: 55%; residual activity [28]: 100%; residual activity [29]: 71%; residual activity [30]: 82%; residual activity [31]: 83%; residual activity [32]: 100%
